One experiment addresses SARS-CoV-2 3CL Protease (Severe acute respiratory syndrome coronavirus 2, UniProt P0DTD1). As to the kind of experiment: biochemical.
Another experiment has as its system 3C^pro. The conditions noted are these: ref [56]; cited from earlier work.
The next experiment relates to Gram-positive bacteria. The note with it: ref [33],[34]; cited from earlier work.
Another experiment has as its system DPP-4. The note with it: ref [33],[34]; cited from earlier work. The source says:
Recently, we investigated ACE inhibitory activity by peptide sequences, derived from the enzymatic hydrolysis of whey proteins and predicted by molecular docking and related prioritization studies.

[1] abbreviates: read-out: Relative Inhibition (RI %).

What is called IC50 is the concentration at which inhibition is half-maximal. Lower therefore signals inhibition by little substance. The term inhibition denotes the drop in the measured response relative to a control, in per cent.

Where a SMILES comes first, the peptide text is derived from it. The star is where a group is joined. Cbz = O=C(OCc1ccccc1)*

As for `CC[C@H](C)[C@H](N)C(=O)N[C@@H](C)C(=O)N[C@@H](CCC(=O)O)C(=O)N[C@@H](CCCCN)C(=O)O` [IAEK] (H-IAEK-OH), the IC50 on SARS-CoV-2 3CL Protease was 154 µM. In addition, on SARS-CoV-2 3CL Protease (setting [1]), the inhibition at 0.036 µM worked out at 34.6 ± 1.13%, the inhibition at 0.36 µM amounted to 40.5 ± 1.26%, the inhibition at 3.6 µM came out at 46.5 ± 3.48% and the inhibition at 36.6 µM is 46.6 ± 3.79%. In addition, at SARS-CoV-2 3CL Protease (setting [1]), the inhibition at 109.8 µM turned out to be 49.7 ± 3.16%, the inhibition at 183 µM turned out to be 87.7 ± 1.61% and the inhibition at 366 µM worked out at 84 ± 3.39%.
On to “Cbz-Leu-Phe-Gln-aldehyde [tripeptide aldehydes]”, for which the “inhibitory activity against 3C^pro” value with 3C^pro is “poor inhibitory activity”.
Turning to IPAVFK, the antimicrobial activity entry in the experiment with Gram-positive bacteria is recorded as “antimicrobial activity against Gram-positive bacteria”. In the experiment on DPP-4, the DPP-4 inhibitory activity result is “exhibited DPP-4 inhibitory activity”.

The values above are taken from paper PMC9139167, “Rational Discovery of Antiviral Whey Protein-Derived Small Peptides Targeting the SARS-CoV-2 Main Protease” (Biomedicines, 2022).
